Assay results from paper PMC7321210, “Synthesis and Studies of the Inhibitory Effect of Hydroxylated Phenylpropanoids and Biphenols Derivatives on Tyrosinase and Laccase Enzymes” (Molecules, 2020).
Entries after “also recorded” stand apart in the source; their conditions may differ.

Experiments:
laccase = assay: Laccase amperometric biosensor: IC50 and type of inhibition; type: biochemical; details: for Type of Inhibition Laccase: Lineweaver-Burk plot, biosensor exposed 30 min to twice the lowest inhibiting concentration; for VMAX, substrate + inhibitor, LAC: dopamine calibration 0-140 mM after inhibitor exposure, n=4 biosensors; for IC50: enzyme immobilized on biosensor, dopamine 50 µM, PBS pH 6.0
Method: (§1) Inhibition types and IC50 were assessed by means of carbon-based amperometric biosensors [61, 62, 63, 64, 65], that are described in the Supplementary Materials. During the experiments carried out to determine the IC50 values, the lowest inhibitory concentration of each compound was also evaluated.
(§2) To verify the inhibition types, the following protocol was used. An initial calibration with dopamine, ranging between 0 and 140 mM, was performed in order to ascertain the values of VMAX and KM. Another calibration with the same protocol was performed after having exposed the biosensors to twice the lowest inhibiting concentration of each inhibitor, in order to ensure the safe inhibition of enzymatic activity. The biosensors were exposed to the inhibitor for 30 min and after having reached a stabile baseline, a calibration with dopamine, ranging between 0 and 140 mM, was performed and the value of VMAX and KM were calculated. The variations of both VMAX and KM were then analyzed by using the Lineweaver-Burk plot in order to identify the type of inhibition induced by the tested compound. The statistical difference in VMAX and KM, before exposing the biosensors to the inhibitor and then afterwards, was calculated by means of a paired t-test (p < 0.05).
(§3) The biosensors were prepared starting from a Teflon™-insulated silver wire (30 mm in length; Ø = 125 μm),
(§4) Briefly, 1 mm of the silver wire was exposed and then introduced into a silica
(§5) capillary cylinder (10 mm in length; I.D. Ø = 180 μm, Polymicro Technologies, Phoenix, AZ, USA) partly
(§6) packed with graphite-loaded (55% w/w) epoxy resin. By mixing 850 mg of graphite with 500 mg of Araldite-
(§7) M and 200 mg of hardener, a preliminary disc electrode of carbon-composite was fabricated (Ø = 180 μm; area:
(§8) 2.5 × 10−4 cm2) by filling the silica capillary tubing with the mixture. The silver wire assured a good electrical
(§9) contact. After 24 h at 40 °C, the electrode surface was cleaned using a high-speed drill (Dremel® 300) equipped
(§10) with an aluminum oxide grinding wheel. On top of the electrode surface a 1 µl of Tyrosinase or Laccase
(§11) solution was deposited. After the complete evaporation of water at room temperature, the biosensor was
(§12) quickly dipped in the polyurethane solution in order to entrap the enzyme on the electrode surface, and after
(§13) the complete evaporation of the solvent biosensors were put to stabilize in PBS pH=6.0 overnight.
(§14) The electrochemical measurements were performed at room temperature in a classical three-electrode
(§15) electrochemical cell consisting of four biosensors as working electrodes, a reference electrode (Ag/AgCl in
(§16) Constant potential amperometry (CPA) was used for in-vitro calibrations and for inhibition evaluation
(§17) experiments by applying a constant potential of -50 mV against an Ag/AgCl reference electrode, by means of
(§18) a four-channel potentiostat (eDAQ Quadstat, e- Corder 410, eDAQ Europe, Poland) and the software Chart (v
(§19) 5.5, eDAQ Europe, Poland). Thus, once the stabilization of the baseline of biosensors was reached, increasing
(§20) volumes of a stock solution of dopamine 1 M were added in order to obtain different concentrations ranging

PC12 cells [1] = assay: Viability of PC12 cells (MTT assay); type: cell-based, rat; details: cell viability < 80%; screening from 1 to 40 μM, 24 h
Method: Initially, the inhibitor concentrations on PC12 cells, i.e., a rat pheochromocytoma-derived cell line, were screened to assess the possible cytotoxicity of the molecules under study [55].
(§21) 1.4 Viability and oxidative stress assays
(§22) PC12 cells, rat pheochromocytoma-derived cell line (ATCCCRL-1721) (passages 12–25) were maintained at 37
(§23) °C humidified air containing 5% CO2/95% atmospheric air and cultured in a 60 mm plastic culture plates with
(§24) Dulbecco’s modified Eagle’s medium supplemented with 10% horse serum, 5% fetal bovine serum and 1% of
(§25) penicillin/streptomycin. PC12 cells were treated for 24 h with the different compounds at different
concentrations ranging from 1 to 40 μM, to evaluate their eventual toxicity.
(§26) For all treatments cell viability was measured by means of MTT assay, as explained in
the following paragraph [17].
(§27) At the end of the exposure time of each experiment, the cell viability was assessed by means of MTT (3-(4,5-
(§28) dimethyl-thiazol-2-yl)-2,5-diphenyltetrazoliumbromide) assay. For this purpose, 1 mg/mL of MTT was added
(§29) to each sample and incubated for 4 h at 37 °C. Only viable cells are able to convert the soluble dye MTT into
(§30) the insoluble formazan crystals. After the incubation the MTT supernatant solution was removed, the cells
(§31) were washed in phosphate-buffered saline (PBS) and centrifuged while the pellet was dissolved in 2 mL of
(§32) isopropanol. After centrifugation of the solution at 4,000 rpm for 5 min, the absorbance for each sample was
(§33) assessed by means of a Bauty Diagnostic Microplate Reader at 578 nm. All experiments were performed in 24-
(§34) well plates (1 × 10^5 cells/mL/well) and repeated in triplicate.

mushroom tyrosinase = assay: Spectrophotometric (UV-Vis) detection of tyrosinase inhibitory activity; type: biochemical; details: for tyrosinase inhibition in words, tyrosine versus dopamine as substrate: UV-Vis, absorbance at 311 or 472 nm, Figure 3
Method: Kinetic assays were carried out by measuring the appearance of the product of either tyrosine or dopamine oxidation in the reaction medium at 311 and 472 nm, respectively, in a Shimadzu UV-2501 spectrophotometer (Shimadzu, Kyoto, Japan) equipped with the UV-Probe software, using a tandem quartz cuvette (Hellma, Milan, Italy) with a 2 × 4.375-mm path length [1, 2, 51]. Briefly, one side of the dual chamber cuvette was filled with 1000 µl of mushroom tyrosinase solution in 50 mM phosphate buffer, pH 6.8, 166 Units/mL using tyrosine as substrate or a 16.6 Units/mL when dopamine was used as substrate. The other chamber was loaded with 980 µL of substrate solution (180 µM tyrosine or 18 µM dopamine) in 20 mM phosphate buffer (pH 6.8) added of either 20 µL of DMSO (control) or 20 µL of a 2 mM (0.2 mM in dopamine experiments) solution of tested inhibitors in DMSO. A background spectrum in the 250–700 nm range was acquired with a 2.0 nm slit and fast speed before starting the reaction. Thereafter, the solutions in the two chambers were mixed by inversion and the UV-Vis spectra were acquired at increasing time intervals. Spectra were recorded at 311 or 472 nm in the presence of the inhibitor before mixing, and after either 24 or 10 min, using tyrosine or dopamine as a substrate, respectively. Data processing was performed with UV Probe and OriginPro 2019 (v. 9.60) softwares.
The mushroom tyrosinase was used as purchased without further purification. All solutions (tyrosinase, substrates and inhibitors) were filtered through a 0.45-μm syringe filter, aliquoted in Eppendorf tubes, and stored in freezer. The relative concentration was determined spectrophotometrically (εtyrosine 274.6 nm = 1420 M^−1·cm^−1; εdopamine at 280 nm = 2670 M^−1·cm^−1; εtyrosinase at 280 nm = 1426 M^−1·cm^−1).
Tyrosine was dissolved in 50 mM phosphate buffer, pH 6.8, final concentration 80 µM and with the added inhibitor (final concentration 20 µM) and tyrosinase (83 U/mL). The absorbance values were determined after 24 min of incubation. In the presence of dopamine, experiments were performed using 10-fold diluted solutions, and the absorbance values were determined after 10 min of incubation.

PC12 cells [2] = assay: Protection of PC12 cells against H2O2-induced oxidative stress (MTT); type: cell-based, rat; details: for H2O2 Damage Protection: concentration with significant increase in viability vs H2O2, co-treatment with 100 μM H2O2, n.p.: no protection; for change of cell viability versus H2O2 alone, in words: co-treatment with 100 μM H2O2, compounds 1 up to 20 μM
Method: as §21, §22, §23, §24, §25
(§35) concentrations ranging from 1 to 40 μM, to evaluate their eventual toxicity. Then, in order to assess the
(§36) eventual compounds’ protection properties, PC12 cell treated with hydrogen peroxide (100μM) in association
with increasing concentration of the above-mentioned molecules, from 1 up to 20 μM.
as §26, §27, §28, §29, §30, §31, §32, §33, §34

PC12 cells [3] = assay: Protection of PC12 cells against MnCl2 damage (MTT); type: cell-based, rat; details: concentration with significant increase in viability vs MnCl2; co-treatment with 1 mM MnCl2; n.p.: no protection
Method: as §22, §23, §24, §25, §35, §36
with increasing concentration of the above-mentioned molecules, from 1 up to 20 μM. For the compounds that
against MnCl2 insult. For all treatments cell viability was measured by means of MTT assay, as explained in
as §27
For this purpose, 1 mg/mL of MTT was added
as §29
the insoluble formazan crystals. After the incubation the MTT supernatant solution was removed, the cells […]
as §32
assessed by means of a Bauty Diagnostic Microplate Reader at 578 nm. […]

Tenebrio molitor = assay: Insecticidal properties on mealworm larvae; type: in vivo; details: Tenebrio molitor, topical, 120 h, larvae immersed three seconds in 2.5 mL acetone solution 6.4 mg/mL, reared five days; DFB as Dimilin WP 25% a.i., 25.6 mg/mL; read-out: Mortality% (Mean ± SD)
Method: Late instar larvae of Tenebrio molitor from a twenty-year-old insect culture at the Research Institute on Terrestrial Ecosystems (National Research Council, Sassari, Italy) were used in the experiments. The species was reared on bran flour, with the integration of fresh vegetables, at 25 °C, 65% relative humidity and 16:8 hours light/darkness.
One hundred medium instar larvae were isolated in a petri dishes (diam. 50 mm). They were then immersed for three seconds in 2.5 mL of an acetone solution (concentration 6.4 mg/mL w:v) of one of the fourteen compounds listed in Table 3. In addition, a treatment with the commercial formulation Dimilin (WP, 25% a.i. diflubenzuron) (acetone solution, 25.6 mg/mL w:v) and a negative control (no treatment) were tested.
After treatment, the larvae were subdivided into five 20-specimen groups and reared for five days in a small PVC box (150 L × 120 W × 50 H mm) with the same feed and conditions as standard rearing. Mortality was recorded daily.
The statistical analysis was conducted with the R software (R Development Core Team 2016). Mortality data, expressed as a percentage, were arcsin(√x)-transformed to satisfy assumptions of normality. ANOVA was performed by the Duncan test for mean separation.

tyrosinase = tyrosinase (Agaricus bisporus, UniProt C7FF04); assay: Tyrosinase amperometric biosensor: IC50 and type of inhibition; type: biochemical; details: for Type of Inhibition Tyrosinase: Lineweaver-Burk plot, biosensor exposed 30 min to twice the lowest inhibiting concentration; for VMAX, substrate + inhibitor, TYR: dopamine calibration 0-140 mM after inhibitor exposure, n=4 biosensors;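 on all read-outs here: Carbon-composite amperometric tyrosinase biosensors with polyurethane-entrapped enzyme, calibrated in a three-electrode cell against Ag/AgCl at room temperature, before versus after inhibitor exposure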
tyrosinase, sequence (C7FF04 2-392): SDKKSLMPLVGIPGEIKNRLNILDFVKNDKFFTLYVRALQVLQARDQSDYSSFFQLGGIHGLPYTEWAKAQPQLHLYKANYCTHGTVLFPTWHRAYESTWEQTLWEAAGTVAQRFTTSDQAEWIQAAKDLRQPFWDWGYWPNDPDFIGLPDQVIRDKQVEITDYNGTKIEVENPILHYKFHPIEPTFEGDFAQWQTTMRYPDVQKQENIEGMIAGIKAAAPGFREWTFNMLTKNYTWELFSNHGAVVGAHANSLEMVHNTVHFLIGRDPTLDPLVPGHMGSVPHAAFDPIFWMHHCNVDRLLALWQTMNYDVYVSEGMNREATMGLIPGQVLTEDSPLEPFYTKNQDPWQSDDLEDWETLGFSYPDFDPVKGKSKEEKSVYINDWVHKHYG
Method: as §1, §2, §3, §4, §5, §6, §7, §8, §9, §10, §11, §12, §13, §14, §15, §16, §17, §18, §19, §20

Row | VMAX, substrate + inhibitor, LAC (laccase) [nA] | VMAX, substrate + inhibitor, TYR (tyrosinase) [nA] | IC50 (laccase) [nM] | % inhibition of tyrosinase (mushroom tyrosinase; comparable with both substrates, tyrosine 80 µM, inhibitor 20 µM, 24 min, dopamine 10-fold diluted solutions, 10 min) [%] | melting point [°C] | Compound | Type of Inhibition Laccase (laccase) | Toxic Concentration (PC12 cells [1]) | tyrosinase inhibition in words, tyrosine versus dopamine as substrate (mushroom tyrosinase) | H2O2 Damage Protection (PC12 cells [2]) | MnCl2 Damage Protection (PC12 cells [3]) | pest or weed control at 6400 µg/mL (Tenebrio molitor) [%] | Type of Inhibition Tyrosinase (tyrosinase) | change of cell viability versus H2O2 alone, in words (PC12 cells [2])
1 | 188.4±9.0 | 114.1±12.5 |  |  |  | CC(=O)C=Cc1ccc(O)cc1O [Compound 7, reference compound] | competitively; also recorded: competitive | >10 µM | most active tyrosinase inhibitor in the presence of both substrates | 1 µM | n.p. | 5 ± 7.07 | competitively; also recorded: competitive | 
2 | 89.2±7.7 | 31.5±2.9 | 212 | 10 |  | COc1cc(/C=C/C(=O)c2ccccc2)ccc1O [Compound 10] | competitive | >20 µM |  | 20 µM | n.p. |  | uncompetitive or mixed; also recorded: mixed | 
3 | 98.1±3.3 | 145.8±17.8 | 2620 |  | 260 to 262 | OC[C@H]1O[C@@H](Oc2ccc(-c3ccc(O)cc3)cc2)[C@H](O)[C@@H](O)[C@@H]1O [Compound 18, (2S,3R,4S,5S,6R)-2-((4’-hydroxy-[1,1’-biphenyl]-4-yl)oxy)-6-(hydroxymethyl)tetrahydro-2H-pyran-3,4,5-triol] | competitively; also recorded: competitive | none | predominant inhibition of tyrosine oxidation | n.p. |  |  | competitively; also recorded: competitive | significant decrease (p < 0.05 vs H2O2) in cells viability at all concentrations tested
4 | 111.4±8.9 | 123.5±9.8 | 130 |  | 176 to 178 | OC[C@H]1O[C@@H](Oc2ccc(-c3ccc(O)c(Br)c3)cc2Br)[C@H](O)[C@@H](O)[C@@H]1O [Compound 19, (2S,3R,4S,5S,6R)-2-((3,3’-dibromo-4’-hydroxy-[1,1’-biphenyl]-4-yl)oxy)-6-(hydroxymethyl)tetrahydro-2H-pyran-3,4,5-triol] | competitive | none | predominant inhibition of tyrosine oxidation | n.p. |  |  | noncompetitive | significant decrease (p < 0.05 vs H2O2) in cells viability at all concentrations tested
